According to patent US20210220374A1, “METHODS OF TREATING TE[…]” (Clarus Therapeutics, Inc., priority 2013, published 2021):

Test: Probability model of serum T Cavg and Cmax distributions (titration dosing modeling)
Parameters: species or system hypogonadal men
Details: nominal model parameter, 200 mg T BID as TU, normal distribution
From the text: The fractions of the modeled patient population having their serum T Cavg and Cmax values falling within and/or outside of pre-specified limits and categories, as predicted from the probability model, were monitored and tabulated. The categories of interest were those identified by the FDA in its proposed guidelines for safe and effective hormone replacement therapy, as summarized in Table 2.
The probability model was based on the pharmacokinetic results obtained from the hypogonadal patient population that participated in the two multi-dose TU treatments in study LOT-A. As noted previously, 29 hypogonadal males participated in the study, 28 of them completed Treatment Period 1 (300 mg T, as TU, BID) and 24 of them completed Treatment Period 3 (200 mg T, as TU, BID).
Initially, the distribution of the calculated values of Cavg in the treated population was characterized by a mean and standard deviation assuming that the distribution fit either a normal distribution, or a log-normal distribution. […]
Second, a relationship was identified between serum T Cavg and Cmax using linear regression, such that given an hypothesized Cavg value, an expected value of Cmax could be determined (FIG. 5). […]
Fourth, the fraction of a treated population that fell within one of the 7 bins identified in Table 1 was calculated by: • 1. […]

## CCCCCCCCCCC(=O)O[C@H]1CC[C@H]2[C@@H]3CCC4=CC(=O)CC[C@]4(C)[C@H]3CC[C@]12C [TU, testosterone undecanoate]
  Mean Cavg (CV): 520 (39%)
